Reference: patent US20180360972A1, “THERAPEUTIC COMPOUNDS” (REGENTS OF THE UNIVERSITY OF MINNESOTA, priority 2017, published 2018)
Entries after “also recorded” stand apart in the source; their conditions may differ.

Columns and labels:
[1] = system: male MC3RKO mice; assay: ICV administration, TSE metabolic cages, male MC3RKO mice; type: in vivo
Procedure: (§1) All experiments were performed in accordance with the Institutional Animal Care and Use Committee (IACUC) at the University of Minnesota. Female and male littermates with mixed background from C57BL/6J and 129/Sv inbred strains were 8 weeks old at the time of surgeries. Mice were individually housed after surgeries and for the remainder of the experiment. Mice were maintained on a 12 hr light/dark cycle (Lights off was at 11:59 AM) in a temperature controlled room (23-25° C.). In the nocturnal feeding paradigm, mice had free access to normal chow (Harlan Teklad 2018 Diet: 18.6% crude protein, 6.2% crude fat, 3.5% crude fiber, with energy density of 3.1 kcal/g). […] Mice had free access to tap water throughout all the experiments. The cannula placement validation studies and conventional cage studies were performed in standard mouse polycarbonate conventional cages provided by University of Minnesota's Research Animal Resources (RAR). Weekly cage changes were conducted by lab research staff.
(§2) Mice were anesthetize with a mixture of ketamine (100 mg/kg) and xylazine (5 mg/kg) and were positioned in a stereotaxic apparatus (David Kopf Instruments). A 26-gauge cannula (Cat# 81C315GS4SPC; PlasticsOne, Roanoke, Va.) was inserted in the lateral cerebral ventricle at the coordinates 1.0 mm lateral and 0.46 mm posterior to bregma and 2.3 mm ventral to the skull (Franklin, K. B. J. & Paxinos, G. The Mouse Brain in Stereotaxic Coordinates. (Academic Press, 1997)).
(§3) As stated above, conventional cage experiments were performed in standard mouse polycarbonate conventional cages. […] All experiments followed a cross-over paradigm in which the mouse received saline and compound on different days with a washout period in between each treatment. Statistical analysis was performed using SPSS V23 software (IBM) using a multivariate general linear model followed by a Bonferroni's post hoc test. Results are presented as Mean±SEM. Statistically significant was considered p<0.05.
In order to more clearly understand the effects of the biased agonism at the MC4R, the effects of administration of CJL-5-58 was explored in MC3R knockout (KO) mice and MC4RKO mice. […] Adverse reactions included two mice dying after the 5 nmol dose. […] The large error in activity may serve as an indication of toxicity. It is currently difficult to decipher whether the adverse reactions observed are due to paradigm effects, genotype difference, or compound toxicity.

[2] = biological target: mMC4R-NanoLuc and mMC4R-HaloTag homodimer (Mus musculus, UniProt P56450); assay: NanoBRET ligand-dependent modulation of BRET signal; conditions: ligand at 10 μM
Procedure: On the first day, cells were plated into 6 well plates in the morning. In the afternoon of the same day, cells were transiently transfected with mMC4R-NanoLuc® fusion protein and the MC4R-HaloTag® fusion protein by adding FuGene6 Transfection (8 μL/well, Promega), DNA (2 μg/well) in OptiMem medium (Invitrogen) at a total volume of 100 μL/well. […] Cells were incubated with transfection reagent overnight at 5% CO2 at 37° C.
This provides the background signal and was subtracted from the final experimental signal. Plates were then developed 48 to 60 hours after transfection. Two hours before the plates were developed, 10 μL of a 10× aliquot of the ligand diluted in assay buffer was added to each well to yield the final in well concentration (10^−5, 10^−7, or 10^−9M) of each compound. For the assay buffer control, 10 μL of assay buffer was added instead of compound. […] The standard error of the mean (SEM) was derived from at least three independent experiments.

[3] = system: wild type mice; assay: ICV administration, conventional cages, wild type mice; type: in vivo
Procedure: as §1, §2
Each mouse was administered hPYY and saline on different days following a crossover design in the nocturnal feeding paradigm. In the nocturnal paradigm, compound is administered 2 hours prior to lights out with free access to food and water throughout the entire experiment. There was at least a 4 day washout period between administration to ensure that normal feeding patterns and body weight returned. Food intake and body weight were manually measured 2, 4, and 6 hours after hPYY or saline administration. A mouse with a validated cannula placement for the TSE cage experiments consumed at least 1.0 g more after hPYY administration compared to saline administration 4 hours post-administration.
as §3

[4] = biological target: T1, mMC4R (Mus musculus, UniProt P56450); assay: 125I-NDP-MSH competitive binding; conditions: displacement of 125I-NDP-MSH; receptor subtype not printed at b283; read-out: binding affinity IC50
T1 construct: expressed in transfected cells
Procedure: NDP-MSH was radioiodinated with Na^125I utilizing the chloramine T procedure (26). […] HEK293 cells stably expressing wildtype mMC1R or mMC4R were maintained as described above. Transiently transfected HEK293 cells were used for binding experiments on the mMC3R. Transfection was performed in 10 cm plates using FuGene6 transfection reagent (15 μL/plate; Promega), Opti-Mem medium (1.7 mL/plate; Invitrogen), and mMC3R-Flag DNA (3.33 μg/plate) two days prior to binding experiment. One or two days preceding the competition experiments, cell were plated into 12-well tissue culture plates (Corning Life Sciences, Cat. # 353043) and grown to 90-100% confluency. On the day of the assay, media was removed gently. The cells were treated with a freshly diluted aliquot of non-labeled compound at the in well concentration being tested (ranging from 10^−12 to 10^−4 M as appropriate) in assay buffer (DMEM and 0.1% BSA) and a constant amount of ^1251-NDP-MSH (100,000 cpm/well) and were incubated at 37° C. for one hour. […] The radioactivity was quantified on WIZARD^2 Automatic Gamma Counter (PerkinElmer). […] The non-specific values used for calculations was radioactivity of the 10^−6 M unlabeled NDP-MSH. Data was analyzed by a nonlinear regression method using the PRISM program (v4.0; GraphPad Inc.) to generate and calculate dose-response curves and IC50 values.

[5] = nocturnal paradigm, 1 nmol dose
[6] = fasting-refeeding, time after administration
[7] = nocturnal free-feeding paradigm, 5.0 nmol ICV

T1 sequence (P56450 whole entry): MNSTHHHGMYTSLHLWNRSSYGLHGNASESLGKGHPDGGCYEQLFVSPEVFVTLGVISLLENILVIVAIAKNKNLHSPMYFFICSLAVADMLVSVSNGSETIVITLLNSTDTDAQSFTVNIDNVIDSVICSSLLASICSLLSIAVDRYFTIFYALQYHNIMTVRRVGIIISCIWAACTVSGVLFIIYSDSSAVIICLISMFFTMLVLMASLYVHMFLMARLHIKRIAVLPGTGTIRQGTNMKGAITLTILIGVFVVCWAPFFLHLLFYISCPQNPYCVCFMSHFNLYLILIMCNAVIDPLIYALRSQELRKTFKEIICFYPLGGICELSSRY
mMC4R-NanoLuc and mMC4R-HaloTag homodimer, sequence (P56450 whole entry): as above
mMC4R-NanoLuc and mMC4R-HaloTag homodimer, sequence (P56450 whole entry): as above

`CC(=O)N[C@@H](Cc1cnc[nH]1)C(=O)N[C@H](Cc1ccccc1)C(=O)N[C@@H](CCCNC(=N)N)C(=O)N[C@@H](Cc1c[nH]c2ccccc12)C(=O)NCCCOCCOCCOCCCNC(=O)COCC(=O)N[C@@H](Cc1cnc[nH]1)C(=O)N[C@H](Cc1ccc2ccccc2c1)C(=O)N[C@@H](CCCNC(=N)N)C(=O)N[C@@H](Cc1c[nH]c2ccccc12)C(N)=O` [CJL-5-58, Ac-His-DPhe-Arg-Trp-(PEDG20)-His-DNal(2′)-Arg-Trp-NH2] was tested, and the RER vs saline ([1]; fasting-refeeding, 0.5 nmol) was “significant increase in RER at time point 24 hours”, the “other parameters vs saline” value ([1]; fasting-refeeding, 0.5 nmols) was “No other parameters were significantly affected” and the RER vs saline ([1]; fasting-refeeding, 1 nmol) was “significantly reduced at 2 and 3 hours”. The “energy expenditure vs saline” value ([1]; fasting-refeeding, 1 nmol) was “Significant reductions in energy expenditure were observed in the fasting paradigm at time points 1 and 2 hours”, the “food intake vs saline” value ([1]; fasting-refeeding, 1.0 nmol) was “Significant reduction in food intake was observed at 2 and 4 hour time points” and the “adverse reactions / toxicity” value ([1]; fasting-refeeding, 1.0 or 0.5 nmols) was “some minor signs of adverse reactions; also recorded: Some toxicity was observed”. For the same compound, the adverse reactions [1, 5] was “No adverse reactions were observed”, the “effects on measured parameters vs saline” value [1, 5] was “no significant effects were observed” and the RER vs saline ([1]; nocturnal paradigm, 2.5 nmol) was “significant increased RER was observed 18, 19, and 24 hours”. The “energy expenditure vs saline” value ([1]; nocturnal paradigm, 2.5 nmol) was “significant reduced 1-8 and 13 hours post-treatment”, the “energy expenditure vs saline” value ([1]; nocturnal paradigm, 5 nmol) was “significantly reduced at time points 1-3 hrs” and the “food intake vs saline” value ([1]; nocturnal paradigm, 5 nmol) was “decreased at time points 2-12 hours”. For the same compound, the “number of mice dying” value ([1]; nocturnal paradigm, 5 nmol dose) was “two”, the activity vs saline ([1]; nocturnal paradigm, 5 nmols) was “trended towards being lowered (p=0.069)” and the RER vs saline ([1]; nocturnal paradigm, 5 nmols (dose not restated for CJL-5-58)) was “significantly decreased at time points 1-5, 8 and 12 hours”. For the same compound, the “adverse reactions / toxicity” value ([1]; nocturnal paradigm, 2.5 to 5 nmols) was “adverse reactions were also observed at the 2.5 and 5 nmol concentrations; also recorded: Some toxicity was observed”, the “reduction in BRET signal compared to basal signal” value [2] was roughly 8% and the adverse effects ([3]; ICV 2.5 nmols and 5.0 nmols, conventional cages) was “no signs of adverse effects”. The “change in body weight vs saline, female mice” value ([3]; fasting-refeeding) was “Only the 2 hour time point was significant”, the “change in body weight vs saline, male mice” value ([3]; fasting-refeeding) was “significant difference was observed in the change in weight of the male mice after compound administration at time points 2, 4, 6, 8, and 24 hours” and the food intake ([3]; fasting-refeeding after 22 hour fast, ICV dose response) was “dose dependent decrease in food intake; also recorded: reduce food intake”. For the same compound, the “food intake vs saline, female mice (time points of significant decrease)” value [3, 6] was 2 and 4 hours, the “food intake vs saline, male mice” value [3, 6] was “Significant decreased food intake was observed at 2, 4, 6, and 8 hours; also recorded: Significant decreases in food intake were observed at 2, 4, 6, and 8 hours” and the “body weight vs saline” value [3, 7] was “no statistically significant effect”. The “food intake vs saline” value [3, 7] was “no statistically significant effect” and the IC50 [4] was 14 nM.
